Measured values from US8916579B2, “5-fluoropyrimidinone derivatives” (Dow AgroSciences, LLC., priority 2009, dated 2014).
Where two headings read alike, the source gives them in different places.

Legend:
[1] = tested on: Mycosphaerella graminicola; anamorph: Septoria tritici; Bayer code SEPTTR; assay: Fungicidal activity: leaf blotch of wheat, greenhouse wheat plants (variety Yuma), percent disease control; format: in vivo; settings: Zymoseptoria tritici
Experimental: Evaluation of Fungicidal Activity: Leaf Blotch of Wheat (Mycosphaerella graminicola; anamorph: Septoria tritici; Bayer code SEPTTR)
Wheat plants (variety Yuma) were grown from seed in a greenhouse in 50% mineral soil/50% soil-less Metro mix until the first leaf was fully emerged, with 7-10 seedlings per pot. These plants were inoculated with an aqueous spore suspension of Septoria tritici either prior to or after fungicide treatments. After inoculation the plants were kept in 100% relative humidity (one day in a dark dew chamber followed by two to three days in a lighted dew chamber) to permit spores to germinate and infect the leaf. The plants were then transferred to a greenhouse for disease to develop.
The effectiveness of the test compounds in controlling disease was determined by assessing the severity of disease on treated plants, then converting the severity to percent control based on the level of disease on untreated, inoculated plants. • In each case of Table II the rating scale is as follows: […]

[2] = 24 h, One-Day Protectant (1DP), 100 ppm, wheat plants, read-out: SEPTTR 100 PPM 1DP (% Disease Control rating)
[3] = 72 h, Three-Day Curative (3DC), 100 ppm, wheat plants, read-out: SEPTTR 100 PPM 3DC (% Disease Control rating)
[4] = 24 h, read-out: SEPTTR 100 PPM 1DP (% Disease Control rating)
[5] = 72 h, read-out: SEPTTR 100 PPM 3DC (% Disease Control rating)

melting point | SMILES | pest or weed control at 100 ppm [1, 2] [%] | pest or weed control at 100 ppm [1, 3] [%] | pest or weed control at 100 ppm [1, 4] [%] | pest or weed control at 100 ppm [1, 5] [%]
210 to 214 °C | CCCC(=O)OCn1cc(F)c(N)nc1=O [Compound 21] | 76 to 100 | 76 to 100 | – | –
259 to 264 °C | CC(C)(C)C(=O)OCn1cc(F)c(N)nc1=O [Compound 22] | 76 to 100 | 76 to 100 | – | –
168 to 189 °C | COc1ccc(CCn2cc(F)c(N)nc2=O)cc1 [Compound 30] | 0 to 25 | 76 to 100 | – | –
252 to 254 °C | Nc1nc(=O)n(CCc2ccc(Cl)cc2)cc1F [Compound 31] | 0 to 25 | 76 to 100 | – | –
255 °C (dec.) | Nc1nc(=O)n(CC2CCOC2)cc1F (stereo not drawn) [Compound 32] | 76 to 100 | 76 to 100 | – | –
250 to 254 °C | Nc1nc(=O)n(Cc2ccc(F)cc2F)cc1F [Compound 33] | 0 to 25 | 51 to 75 | – | –
157 to 160 °C | CCn1cc(F)c(/N=C/N(C)C)nc1=O [Compound 34, (E)-N′-(1-ethyl-5-fluoro-2-oxo-1,2-dihydropyrimidin-4-yl)-N,N-dimethylformimidamide] | 76 to 100 | 76 to 100 | – | –
196 to 200 °C | CN(C)/C=N/c1nc(=O)n(Cc2ccc(F)c(F)c2)cc1F [Compound 35] | 51 to 75 | 51 to 75 | – | –
213.5 to 214.4 °C | C=Cn1cc(F)c(N)nc1=O [Compound 41] | 76 to 100 | 76 to 100 | – | –
225 to 227 °C | Cc1ccc(-n2cc(F)c(N)nc2=O)cc1 [Compound 43] | 26 to 50 | 0 to 25 | – | –
175 to 178 °C | N#Cc1cccc(-n2cc(F)c(N)nc2=O)c1 [Compound 46] | 0 to 25 | 0 to 25 | – | –
275 to 279 °C | Nc1nc(=O)n(-c2ccc3c(c2)OCO3)cc1F [Compound 47] | 26 to 50 | 0 to 25 | – | –
211 to 213 °C | CN(C)/C=N/c1nc(=O)n(-c2ccsc2)cc1F [Compound 56, (E)-N′-(5-fluoro-2-oxo-1-(thiophen-3-yl)-1,2-dihydropyrimidin-4-yl)-N,N-dimethylformimidamide] | 26 to 50 | 51 to 75 | – | –
196.1 to 198 °C | COc1ccc(-n2cc(F)c(/N=C/N(C)C)nc2=O)cc1OC [Compound 57] | 0 to 25 | 0 to 25 | – | –
179.2 to 181.1 °C | Nc1nc(=O)n(CC2CCCO2)cc1F (stereo not drawn) [Compound 76] | 0 to 25 | 51 to 75 | – | –
181.8 to 183.5 °C | CSCn1cc(F)c(NC(=O)Nc2ccccc2Cl)nc1=O [Compound 86] | 26 to 50 | 26 to 50 | – | –
146 to 147.6 °C | CCCCCNC(=O)Nc1nc(=O)n(Cc2cccnc2)cc1F [Compound 89] | 0 to 25 | 26 to 50 | – | –
188.8 to 190.2 °C | CSCn1cc(F)c(NC(=O)Nc2ccc(C)cc2)nc1=O [Compound 93] | 0 to 25 | 51 to 75 | – | –
119.8 to 121.9 °C | O=C(Nc1nc(=O)n(CC2CCCO2)cc1F)c1ccccc1F (stereo not drawn) [Compound 96] | 0 to 25 | 26 to 50 | – | –
134.5 to 136.5 °C | CC(=O)Nc1nc(=O)n(CC(C)C)cc1F [Compound 97] | 26 to 50 | 26 to 50 | – | –
161.3 to 163 °C | CC(C)Cn1cc(F)c(NC(=O)c2ccccc2F)nc1=O [Compound 98] | 0 to 25 | 0 to 25 | – | –

Further lines, the molecule ahead of its results:

SMILES | melting point | pest or weed control at 100 ppm [1, 2] [%] | pest or weed control at 100 ppm [1, 3] [%] | pest or weed control at 100 ppm [1, 4] [%] | pest or weed control at 100 ppm [1, 5] [%]
CCOC(=O)OC(C)n1cc(F)c(N)nc1=O (stereo not drawn) [Compound 23] | 162 to 166 °C | 76 to 100 | 76 to 100 | – | –
CSCn1cc(F)c(/N=C/N(C)C)nc1=O [Compound 24, N′-(5-fluoro-1-methylsulfanylmethyl-2-oxo-1,2-dihydropyrimidin-4-yl)-N,N-dimethylformamidine] | 132 to 136 °C | – | – | 76 to 100 | 76 to 100
Nc1nc(=O)n(CCCCI)cc1F [Compound 26, 4-amino-5-fluoro-1-(4-iodobutyl)-1H-pyrimidin-2-one] | 181 to 184 °C | – | – | 0 to 25 | 26 to 50
Nc1nc(=O)n(CCCCn2cncn2)cc1F [Compound 27, 4-amino-5-fluoro-1-(4-[1,2,4]triazol-1-yl-butyl)-1H-pyrimidin-2-one] | 197 to 200 °C | 0 to 25 | 0 to 25 | – | –
Cn1cc(F)c(N)nc1=O [Compound 28, 4-amino-5-fluoro-1-methylpyrimidin-2(1H)-one] | 195 °C (dec.) | 51 to 75 | 76 to 100 | – | –
CCn1cc(F)c(N)nc1=O [Compound 29] | 279 °C (dec.) | 51 to 75 | 76 to 100 | – | –
CCOC(=O)Cn1cc(F)c(/N=C/N(C)C)nc1=O [Compound 36] | 196 to 199 °C | 51 to 75 | 26 to 50 | – | –
Nc1nc(=O)n(-c2ccsc2)cc1F [Compound 39, 4-amino-5-fluoro-1-(thiophen-3-yl)pyrimidin-2(1H)-one] | 228 to 229 °C | – | – | 0 to 25 | 76 to 100
COc1ccc(-n2cc(F)c(N)nc2=O)cc1OC [Compound 40] | 244.8 to 245.6 °C | 0 to 25 | 0 to 25 | – | –
C=Cn1cc(F)c(/N=C/N(C)C)nc1=O [Compound 58] | 179.6 to 181.3 °C | 76 to 100 | 76 to 100 | – | –
O=c1nc(NCc2ccccc2F)c(F)cn1-c1ccsc1 [Compound 65, 5-fluoro-4-(2-fluorobenzylamino)-1-(thiophen-3-yl)pyrimidin-2(1H)-one] | 75 to 78 °C | 0 to 25 | 0 to 25 | – | –
COc1ccc(-n2cc(F)c(NCc3ccccc3F)nc2=O)cc1OC [Compound 66] | 206.3 to 207.9 °C | 0 to 25 | 0 to 25 | – | –
C=Cn1cc(F)c(NCc2ccccc2F)nc1=O [Compound 67] | 168.6 to 169.1 °C | 0 to 25 | 51 to 75 | – | –
CC(C)Cn1cc(F)c(N)nc1=O [Compound 77] | 140 to 142.8 °C | 26 to 50 | 0 to 25 | – | –
CCOC(=O)Nc1nc(=O)n(CC2CC2)cc1F [Compound 80, ethyl 1-(cyclopropylmethyl)-5-fluoro-2-oxo-1,2-dihydropyrimidin-4-ylcarbamate] | 90 to 92 °C | – | – | 0 to 25 | 51 to 75
O=C(Nc1nc(=O)n(CC2CC2)cc1F)OCc1ccccc1 [Compound 81] | 228 to 230 °C | 26 to 50 | 76 to 100 | – | –
O=C(Oc1ccccc1)N(C(=O)Oc1ccccc1)c1nc(=O)n(CC2CC2)cc1F [Compound 82] | 159 to 161 °C | – | – | 26 to 50 | 26 to 50
O=C(Nc1ccccc1Cl)Nc1nc(=O)n(CC2CC2)cc1F [Compound 85, 1-(2-chlorophenyl)-3-(1-(cyclopropylmethyl)-5-fluoro-2-oxo-1,2-dihydropyrimidin-4-yl)urea] | 197 to 199 °C | 0 to 25 | 0 to 25 | – | –
CCCCCNC(=O)Nc1nc(=O)n(CC2CC2)cc1F [Compound 87] | 113 to 114.9 °C | 0 to 25 | 51 to 75 | – | –
Cc1ccc(NC(=O)Nc2nc(=O)n(CC3CC3)cc2F)cc1 [Compound 88] | 205.6 to 207.5 °C | 0 to 25 | 51 to 75 | – | –
Cc1ccc(NC(=O)Nc2nc(=O)n(Cc3cccnc3)cc2F)cc1 [Compound 90] | 178.2 to 180 °C | 0 to 25 | 0 to 25 | – | –
O=C(Nc1ccccc1Cl)Nc1nc(=O)n(Cc2cccnc2)cc1F [Compound 91] | 210.5 to 212.3 °C | 0 to 25 | 0 to 25 | – | –
CCCCCNC(=O)Nc1nc(=O)n(CSC)cc1F [Compound 92] | 100.2 to 101.8 °C | 76 to 100 | 76 to 100 | – | –
CC(C)Cn1cc(F)c(NC(=O)c2cccs2)nc1=O [Compound 99] | 125.6 to 127.5 °C | 0 to 25 | 76 to 100 | – | –
